From patent US10588317B2, “Isoxazoline-substituted benzamides and analogues as insecticides” (priority 2015, dated 2020)

Experiments:
Format in all cases: in vivo
Diabrotica balteata = Diabrotica balteata (corn root worm), sprayed maize sprouts; conditions: 96 h, application rate 200 ppm, L2 larvae, 4 days after infestation, read-out: effect in at least one of the two categories (mortality or growth inhibition)
Method in brief: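 Read-out at 4 days post-infestation: mortality and growth inhibition relative to untreated samples. Test solutions (200 ppm, from DMSO stocks) were sprayed onto agar-held maize sprouts, which after drying received 6–10 L2 larvae per well.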

Euschistus heros = Euschistus heros (neotropical brown stink bug), sprayed soybean leaves; conditions: 120 h, application rate 200 ppm, N2 nymphs, 5 days after infestation, read-out: effect in at least one of the two categories (mortality or growth inhibition)
Method in brief: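 Scored 5 days post-infestation versus untreated controls, for both mortality and growth inhibition: N2 nymphs placed on agar-mounted soybean leaves previously sprayed at 200 ppm with aqueous test solutions from DMSO stocks and left to dry.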

Myzus persicae = Myzus persicae (green peach aphid): feeding/contact activity; conditions: 144 h, application rate 200 ppm, aphid population of mixed ages, 6 days after infestation, read-out: mortality
Protocol: (§1) Sunflower leaf discs were placed onto agar in a 24-well microtiter plate and sprayed with aqueous test solutions prepared from 10'000 ppm DMSO stock solutions. After drying, the leaf discs were infested with an aphid population of mixed ages. The samples were assessed for mortality 6 days after infestation.

Plutella xylostella = Plutella xylostella (diamond back moth), artificial diet; conditions: 120 h, application rate 200 ppm, L2 larvae, 5 days after infestation, read-out: effect in at least one of the two categories (mortality or growth inhibition)
Method in brief: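 L2 larvae (10-15 per well) fed on compound-treated, dried artificial diet; test solutions diluted in water from 10'000 ppm DMSO stocks. Readout 5 days post-infestation as mortality or growth inhibition versus untreated diet, with at least 80% effect at 200 ppm as threshold.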

Spodoptera littoralis [1] = experiment: Spodoptera littoralis (Egyptian cotton leaf worm), sprayed cotton leaf discs; conditions: foliar, 72 h, application rate 200 ppm, L1 larvae, 3 days after infestation, read-out: control (mortality, anti-feeding effect, growth inhibition)
Method in brief: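 Five first-instar larvae placed on dried cotton leaf discs (on agar) previously sprayed with aqueous dilutions of 10'000 ppm DMSO stocks. Scored at 3 days against untreated discs for mortality, feeding inhibition and growth inhibition; any category above untreated counts as control.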

Spodoptera littoralis [2] = experiment: Spodoptera littoralis (Egyptian cotton leaf worm), uptake by lettuce roots from agar; conditions: 144 h, read-out: effect in at least one of the three categories (mortality, anti-feeding, or growth inhibition)
Source text: Test compounds were applied by pipette from 10'000 ppm DMSO stock solutions into 24-well plates and mixed with agar. Lettuce seeds were placed onto the agar and the multi well plate was closed by another plate which contained also agar. After 7 days the compound was absorbed by the roots and the lettuce grew into the lid plate. The lettuce leaves were then cut off into the lid plate. Spodoptera eggs were pipetted through a plastic stencil onto a humid gel blotting paper and the lid plate was closed with it. The samples were assessed for mortality, anti-feedant effect and growth inhibition in comparison to untreated samples 6 days after infestation.
The following compounds gave an effect of at least 80% in at least one of the three categories (mortality, anti-feeding, or growth inhibition) at a test rate of 12.5 ppm: […]

Tetranychus urticae = Tetranychus urticae (two-spotted spider mite): feeding/contact activity; conditions: 192 h, application rate 200 ppm, mixed population (mobile stages), 8 days after infestation, read-out: mortality
Protocol: Bean leaf discs on agar in 24-well microtiter plates were sprayed with aqueous test solutions prepared from 10'000 ppm DMSO stock solutions. After drying the leaf discs were infested with a mite population of mixed ages. The samples were assessed for mortality on mixed population (mobile stages) 8 days after infestation.

Thrips tabaci = Thrips tabaci (onion thrips): feeding/contact activity; conditions: 144 h, application rate 200 ppm, Thrips population of mixed ages, 6 days after infestation, read-out: mortality
Protocol: as §1, with “on” for “onto”, “in” for “in a”, “plates” for “plate”, “drying” for “drying,”, “a Thrips” for “an aphid”

CNS(=O)(=O)N1C[C@@H](NC(=O)c2ccc(C3=NO[C@@](c4cc(Cl)cc(Cl)c4)(C(F)(F)F)C3)cc2Cl)CO1 [Compound A114, 2-chloro-4-[(5S)-5-(3,5-dichlorophenyl)-5-(trifluoromethyl)-4H-isoxazol-3-yl]-N-[(4R)-2-(methylsulfamoyl)isoxazolidin-4-yl]benzamide]
≥ 80%: percent effect (mortality or growth inhibition) at 200 ppm (Diabrotica balteata) | percent effect (mortality or growth inhibition) at 200 ppm (Euschistus heros) | mortality at 200 ppm (Myzus persicae) | percent effect (mortality or growth inhibition) at 200 ppm (Plutella xylostella) | mortality at 200 ppm (Spodoptera littoralis [1]) | percent control (mortality, anti-feedant effect or growth inhibition) at 12.5 ppm (Spodoptera littoralis [2]) | mortality at 200 ppm (Tetranychus urticae) | mortality at 200 ppm (Thrips tabaci)

Cc1cc(C2=NO[C@@](c3cc(Cl)c(F)c(Cl)c3)(C(F)(F)F)C2)ccc1C(=O)N[C@@H]1CON(S(C)(=O)=O)C1 (single isomer, unassigned) [Compound A12]
≥ 80%: percent effect (mortality or growth inhibition) at 200 ppm (Diabrotica balteata) | percent effect (mortality or growth inhibition) at 200 ppm (Euschistus heros) | mortality at 200 ppm (Myzus persicae) | percent effect (mortality or growth inhibition) at 200 ppm (Plutella xylostella) | mortality at 200 ppm (Spodoptera littoralis [1]) | percent control (mortality, anti-feedant effect or growth inhibition) at 12.5 ppm (Spodoptera littoralis [2]) | mortality at 200 ppm (Tetranychus urticae) | mortality at 200 ppm (Thrips tabaci)

CCNS(=O)(=O)N1C[C@@H](NC(=O)c2ccc(C3=NO[C@@](c4cc(Cl)c(Cl)c(Cl)c4)(C(F)(F)F)C3)cc2Cl)CO1 [Compound A125, 2-chloro-N-[(4R)-2-(ethylsulfamoyl)isoxazolidin-4-yl]-4-[(5S)-5-(3,4,5-trichlorophenyl)-5-(trifluoromethyl)-4H-isoxazol-3-yl]benzamide]
≥ 80%: percent effect (mortality or growth inhibition) at 200 ppm (Diabrotica balteata) | percent effect (mortality or growth inhibition) at 200 ppm (Euschistus heros) | mortality at 200 ppm (Myzus persicae) | percent effect (mortality or growth inhibition) at 200 ppm (Plutella xylostella) | mortality at 200 ppm (Spodoptera littoralis [1]) | percent control (mortality, anti-feedant effect or growth inhibition) at 12.5 ppm (Spodoptera littoralis [2]) | mortality at 200 ppm (Tetranychus urticae) | mortality at 200 ppm (Thrips tabaci)

CCNS(=O)(=O)N1C[C@@H](NC(=O)c2ccc(C3=NO[C@@](c4cc(Cl)c(F)c(Cl)c4)(C(F)(F)F)C3)cc2C)CO1 [Compound A133, 4-[(5S)-5-(3,5-dichloro-4-fluoro-phenyl)-5-(trifluoromethyl)-4H-isoxazol-3-yl]-N-[(4R)-2-(ethylsulfamoyl)isoxazolidin-4-yl]-2-methyl-benzamide]
≥ 80%: percent effect (mortality or growth inhibition) at 200 ppm (Diabrotica balteata) | percent effect (mortality or growth inhibition) at 200 ppm (Euschistus heros) | mortality at 200 ppm (Myzus persicae) | percent effect (mortality or growth inhibition) at 200 ppm (Plutella xylostella) | mortality at 200 ppm (Spodoptera littoralis [1]) | percent control (mortality, anti-feedant effect or growth inhibition) at 12.5 ppm (Spodoptera littoralis [2]) | mortality at 200 ppm (Tetranychus urticae) | mortality at 200 ppm (Thrips tabaci)

CCN(C)S(=O)(=O)N1C[C@@H](NC(=O)c2ccc(C3=NO[C@@](c4cc(Cl)c(Cl)c(Cl)c4)(C(F)(F)F)C3)cc2Cl)CO1 [Compound A132, 2-chloro-N-[(4R)-2-[ethyl(methyl)sulfamoyl]isoxazolidin-4-yl]-4-[(5S)-5-(3,4,5-trichlorophenyl)-5-(trifluoromethyl)-4H-isoxazol-3-yl]benzamide]
≥ 80%: percent effect (mortality or growth inhibition) at 200 ppm (Diabrotica balteata) | percent effect (mortality or growth inhibition) at 200 ppm (Euschistus heros) | mortality at 200 ppm (Myzus persicae) | percent effect (mortality or growth inhibition) at 200 ppm (Plutella xylostella) | mortality at 200 ppm (Spodoptera littoralis [1]) | percent control (mortality, anti-feedant effect or growth inhibition) at 12.5 ppm (Spodoptera littoralis [2]) | mortality at 200 ppm (Tetranychus urticae) | mortality at 200 ppm (Thrips tabaci)

Cc1cc(C2=NO[C@@](c3cc(Cl)c(F)c(Cl)c3)(C(F)(F)F)C2)ccc1C(=O)NC1CON(S(=O)(=O)CCC(F)(F)F)C1 (stereo partly drawn) [Compound A11]
≥ 80%: percent effect (mortality or growth inhibition) at 200 ppm (Diabrotica balteata) | percent effect (mortality or growth inhibition) at 200 ppm (Euschistus heros) | mortality at 200 ppm (Myzus persicae) | percent effect (mortality or growth inhibition) at 200 ppm (Plutella xylostella) | mortality at 200 ppm (Spodoptera littoralis [1]) | percent control (mortality, anti-feedant effect or growth inhibition) at 12.5 ppm (Spodoptera littoralis [2]) | mortality at 200 ppm (Tetranychus urticae) | mortality at 200 ppm (Thrips tabaci)

CNS(=O)(=O)N1C[C@@H](NC(=O)c2ccc(C3=NO[C@@](c4cc(Cl)cc(C(F)(F)F)c4)(C(F)(F)F)C3)cc2C)CO1 [Compound A138]
≥ 80%: percent effect (mortality or growth inhibition) at 200 ppm (Diabrotica balteata) | percent effect (mortality or growth inhibition) at 200 ppm (Euschistus heros) | mortality at 200 ppm (Myzus persicae) | percent effect (mortality or growth inhibition) at 200 ppm (Plutella xylostella) | mortality at 200 ppm (Spodoptera littoralis [1]) | percent control (mortality, anti-feedant effect or growth inhibition) at 12.5 ppm (Spodoptera littoralis [2]) | mortality at 200 ppm (Tetranychus urticae) | mortality at 200 ppm (Thrips tabaci)

Cc1cc(C2=NO[C@@](c3cc(Cl)c(F)c(Cl)c3)(C(F)(F)F)C2)ccc1C(=O)NC1CON(S(=O)(=O)N(C)C)C1 (stereo partly drawn) [Compound A10]
≥ 80%: percent effect (mortality or growth inhibition) at 200 ppm (Diabrotica balteata) | percent effect (mortality or growth inhibition) at 200 ppm (Euschistus heros) | mortality at 200 ppm (Myzus persicae) | percent effect (mortality or growth inhibition) at 200 ppm (Plutella xylostella) | mortality at 200 ppm (Spodoptera littoralis [1]) | percent control (mortality, anti-feedant effect or growth inhibition) at 12.5 ppm (Spodoptera littoralis [2]) | mortality at 200 ppm (Tetranychus urticae) | mortality at 200 ppm (Thrips tabaci)

O=C(NC1CON(S(=O)(=O)C2CC2)C1)c1ccc(C2=NO[C@@](c3cc(Cl)c(Cl)c(Cl)c3)(C(F)(F)F)C2)cc1Cl (stereo partly drawn) [Compound A30, 2-chloro-N-(2-cyclopropylsulfonylisoxazolidin-4-yl)-4-[(5S)-5-(3,4,5-trichlorophenyl)-5-(trifluoromethyl)-4H-isoxazol-3-yl]benzamide]
≥ 80%: percent effect (mortality or growth inhibition) at 200 ppm (Diabrotica balteata) | mortality at 200 ppm (Myzus persicae) | percent effect (mortality or growth inhibition) at 200 ppm (Plutella xylostella) | mortality at 200 ppm (Spodoptera littoralis [1]) | percent control (mortality, anti-feedant effect or growth inhibition) at 12.5 ppm (Spodoptera littoralis [2]) | mortality at 200 ppm (Tetranychus urticae) | mortality at 200 ppm (Thrips tabaci)

Cc1cc(C2=NO[C@@](c3cc(Cl)cc(C(F)(F)F)c3)(C(F)(F)F)C2)ccc1C(=O)NC1CON(S(=O)(=O)N(C)C)C1 (stereo partly drawn) [Compound A22]
≥ 80%: percent effect (mortality or growth inhibition) at 200 ppm (Diabrotica balteata) | mortality at 200 ppm (Myzus persicae) | percent effect (mortality or growth inhibition) at 200 ppm (Plutella xylostella) | mortality at 200 ppm (Spodoptera littoralis [1]) | percent control (mortality, anti-feedant effect or growth inhibition) at 12.5 ppm (Spodoptera littoralis [2]) | mortality at 200 ppm (Tetranychus urticae) | mortality at 200 ppm (Thrips tabaci)

CN(C)S(=O)(=O)N1CC(NC(=O)c2ccc(C3=NO[C@@](c4cc(Cl)c(Cl)c(Cl)c4)(C(F)(F)F)C3)cc2Cl)CO1 (stereo partly drawn) [Compound A32, 2-chloro-N-[2-(dimethylsulfamoyl)isoxazolidin-4-yl]-4-[(5S)-5-(3,4,5-trichlorophenyl)-5-(trifluoromethyl)-4H-isoxazol-3-yl]benzamide]
≥ 80%: percent effect (mortality or growth inhibition) at 200 ppm (Diabrotica balteata) | mortality at 200 ppm (Myzus persicae) | percent effect (mortality or growth inhibition) at 200 ppm (Plutella xylostella) | mortality at 200 ppm (Spodoptera littoralis [1]) | percent control (mortality, anti-feedant effect or growth inhibition) at 12.5 ppm (Spodoptera littoralis [2]) | mortality at 200 ppm (Tetranychus urticae) | mortality at 200 ppm (Thrips tabaci)

Cc1cc(C2=NO[C@@](c3cc(Cl)c(Cl)c(Cl)c3)(C(F)(F)F)C2)ccc1C(=O)NC1CON(S(=O)(=O)N(C)C)C1 (stereo partly drawn) [Compound A31, N-[2-(dimethylsulfamoyl)isoxazolidin-4-yl]-2-methyl-4-[(5S)-5-(3,4,5-trichlorophenyl)-5-(trifluoromethyl)-4H-isoxazol-3-yl]benzamide]
≥ 80%: percent effect (mortality or growth inhibition) at 200 ppm (Diabrotica balteata) | mortality at 200 ppm (Myzus persicae) | percent effect (mortality or growth inhibition) at 200 ppm (Plutella xylostella) | mortality at 200 ppm (Spodoptera littoralis [1]) | percent control (mortality, anti-feedant effect or growth inhibition) at 12.5 ppm (Spodoptera littoralis [2]) | mortality at 200 ppm (Tetranychus urticae) | mortality at 200 ppm (Thrips tabaci)

O=C(NC1CON(S(=O)(=O)C2CC2)C1)c1ccc(C2=NO[C@@](c3cc(Cl)c(F)c(Cl)c3)(C(F)(F)F)C2)cc1Cl (stereo partly drawn) [Compound A24, 2-chloro-N-(2-cyclopropylsulfonylisoxazolidin-4-yl)-4-[(5S)-5-(3,5-dichloro-4-fluoro-phenyl)-5-(trifluoromethyl)-4H-isoxazol-3-yl]benzamide]
≥ 80%: percent effect (mortality or growth inhibition) at 200 ppm (Diabrotica balteata) | mortality at 200 ppm (Myzus persicae) | percent effect (mortality or growth inhibition) at 200 ppm (Plutella xylostella) | mortality at 200 ppm (Spodoptera littoralis [1]) | percent control (mortality, anti-feedant effect or growth inhibition) at 12.5 ppm (Spodoptera littoralis [2]) | mortality at 200 ppm (Tetranychus urticae) | mortality at 200 ppm (Thrips tabaci)
